# Results published in patent US10155021B2, “Antimicrobial 4-oxoquinolizines” (Emergent Product Development Gaithersburg Inc., priority 2011, dated 2018).
# Where two headings read alike, the source gives them in different places.
# Experiments:
# [1] = test system: resistant strains of A. baumannii and one strain of Acinetobacter sp.; experiment: MIC without and with sub-inhibitory polymyxin B, whole panel / MIC ranges (Example 4; also strains not listed separately); assay type: cell-based; settings: 1st experiment, 8 strains
# [2] = test system: A. baumannii A472; experiment: Preliminary MBC without and with sub-inhibitory polymyxin B (Example 4); assay type: cell-based, Acinetobacter baumannii; settings: for MBC +[…] PB: A. baumannii A472, +[…] polymyxin B; for MBC: Acinetobacter baumannii, A472, A. baumannii A472, without polymyxin B, read-out: MBC without PB
# [3] = test system: A. baumannii A390; experiment: as above; assay type: cell-based, Acinetobacter baumannii; settings: preliminary MBC; for MBC: Acinetobacter baumannii, A390, A. baumannii A390, without polymyxin B, read-out: MBC without PB
# [4] = test system: A. baumannii ATCC 19606; experiment: MIC without and with sub-inhibitory polymyxin B (Example 4); assay type: cell-based, Acinetobacter baumannii; settings: for MIC +0.06 μg/ml PB / MIC without PB/MIC + PB: A. baumannii ATCC 19606; for MIC +0.06 μg/ml PB: +0.06 μg/ml polymyxin B; for MIC without PB/MIC + PB: ratio, PB 0.06 μg/ml; for MIC: Acinetobacter baumannii, ATCC19606, A. baumannii ATCC 19606, without polymyxin B
# [5] = test system: A. baumannii A473; experiment: Preliminary MBC without and with sub-inhibitory polymyxin B (Example 4); assay type: cell-based, Acinetobacter baumannii; settings: for MBC: Acinetobacter baumannii, A473, A. baumannii A473, without polymyxin B, read-out: MBC without PB
# [6] = test system: A. baumannii A472; experiment: MIC without and with sub-inhibitory polymyxin B (Example 4); assay type: cell-based, Acinetobacter baumannii; settings: for MIC +[…] PB: +[…] polymyxin B; for MIC: Acinetobacter baumannii, A472, A. baumannii A472, without polymyxin B, read-out: MIC without PB
# [7] = test system: Acinetobacter sp. (H064200250); experiment: as above; assay type: cell-based; settings: for MIC +[…] PB: +[…] polymyxin B; for MIC without PB/MIC + PB: ratio; for MIC: Acinetobacter, without polymyxin B, read-out: MIC without PB
# [8] = test system: A. baumannii A489; experiment: Preliminary MBC without and with sub-inhibitory polymyxin B (Example 4); assay type: cell-based, Acinetobacter baumannii; settings: for MBC +[…] PB: A. baumannii A489, +[…] polymyxin B; for MBC: Acinetobacter baumannii, A489, A. baumannii A489, without polymyxin B, read-out: MBC without PB
# [9] = test system: A. baumannii A473; experiment: MIC without and with sub-inhibitory polymyxin B (Example 4); assay type: cell-based, Acinetobacter baumannii; settings: for MIC: Acinetobacter baumannii, A473, A. baumannii A473, without polymyxin B, read-out: MIC without PB
# [10] = test system: A. baumannii A401; experiment: Preliminary MBC without and with sub-inhibitory polymyxin B (Example 4); assay type: cell-based, Acinetobacter baumannii; settings: preliminary MBC; for MBC +0.06 μg/ml PB: A baumannii A 401, +0.06 μg/ml polymyxin B; for MBC: Acinetobacter baumannii, A401, A baumannii A 401, without polymyxin B, read-out: MBC without PB
# [11] = Acinetobacter spp. H064200250 (OXA51), 2nd experiment, visual reading
# [12] = Acinetobacter spp. H064200250, 1st experiment
smiles,measurement,setting,value
"C[C@@H](O)[C@H]1C(=O)N2C(C(=O)O)=C(SCCN=CN)C[C@H]12 [Imipenem, reference compound]",MIC,"[1]; Acinetobacter baumannii, read-out: MIC range without PB 01-10-2008 n = 8, without polymyxin B",1 to 128 µg/mL
same,MIC range with PB ([…] MIC) 01-10-2008 n = 8,[1]; with polymyxin B […] MIC,<0.125-16 μg/ml
same,MBC +[…] PB,[2]; 1st experiment,0.25 µg/mL
same,MBC +[…] PB,[2]; 2nd experiment,0.25 µg/mL
same,MBC,[2]; 1st experiment,16 µg/mL
same,MBC,[2]; 2nd experiment,8 µg/mL
same,MBC +0.06 μg/ml PB,"[3]; A. baumannii A390, +0.06 μg/ml polymyxin B, 2nd experiment",4 µg/mL
same,MBC,[3]; 2nd experiment,16 µg/mL
same,MBC,[3]; 1st experiment,16 µg/mL
same,MIC +0.06 μg/ml PB,[4]; 1st experiment,1 µg/mL
same,MIC +0.06 μg/ml PB,"[4]; 2nd experiment, visual reading",1 µg/mL
same,MIC without PB/MIC + PB,[4]; 1st experiment,2
same,MIC without PB/MIC + PB,[4]; 2nd experiment,1
same,MIC,"[4]; 1st experiment, read-out: MIC without PB",2 µg/mL
same,MIC,"[4]; 2nd experiment, second reading marked *, mark not explained, read-out: MIC without PB, value in parentheses marked *",4 µg/mL
same,MIC,"[4]; 2nd experiment, visual reading, read-out: MIC without PB",1 µg/mL
same,MBC +0.06 μg/ml PB,"[5]; A. baumannii A473, +0.06 μg/ml polymyxin B, 2nd experiment",4 µg/mL
same,MBC,[5]; 1st experiment,32 µg/mL
same,MBC,[5]; 2nd experiment,32 µg/mL
same,MIC +[…] PB,"[6]; A. baumannii A472, 1st experiment",0.25 µg/mL
same,MIC +[…] PB,"[6]; A. baumannii A472, 2nd experiment, visual reading",0.25 µg/mL
same,MIC ratio without/with polymyxin B,"[6]; A. baumannii A472, ratio MIC without PB to MIC + PB, PB […], 2nd experiment",32 µg/mL
same,MIC without PB/MIC + PB,"[6]; A. baumannii A472, ratio, PB […], 1st experiment",64
same,MIC,[6]; 1st experiment,16 µg/mL
same,MIC,"[6]; 2nd experiment, visual reading",8 µg/mL
same,MIC +[…] PB,[7]; [11],0.5 µg/mL
same,MIC without PB/MIC + PB,"[7]; Acinetobacter spp. H064200250 (OXA51), 2nd experiment",16
same,MIC +[…] PB,[7]; [12],0.5 µg/mL
same,MIC without PB/MIC + PB,[7]; [12],32
same,MIC,[7]; [11],8 µg/mL
same,MIC,[7]; [12],16 µg/mL
same,MBC +[…] PB,[8]; 1st experiment,2 µg/mL
same,MBC +[…] PB,[8]; 2nd experiment,0.25 µg/mL
same,MBC,[8]; 1st experiment,64 µg/mL
same,MBC,[8]; 2nd experiment,64 µg/mL
same,MIC +0.06 μg/ml PB,"[9]; A. baumannii A473, +0.06 μg/ml polymyxin B, 2nd experiment, visual reading",4 µg/mL
same,MIC without PB/MIC + PB,"[9]; A. baumannii A473, ratio, PB 0.06 μg/ml, 2nd experiment",8
same,MIC,[9]; 1st experiment,32 µg/mL
same,MIC,"[9]; 2nd experiment, visual reading",32 µg/mL
same,MBC +0.06 μg/ml PB,[10]; 2nd experiment,4 µg/mL
same,MBC +0.06 μg/ml PB,[10]; 1st experiment,8 µg/mL
same,MBC,[10]; 2nd experiment,32 µg/mL
same,MBC,[10]; 1st experiment,32 µg/mL
